# Laboratory results from US11708348B2, “Protease inhibitors for treatment of coronavirus infections” (The Scripps Research Institute, priority 2021, dated 2023).
# System: SARS-CoV-2 strain USA-WA1/2020
# Assay: microbe, parasite or virus in culture
# Assay type: cell-based
# Conditions: Severe acute respiratory syndrome coronavirus 2, HeLa-ACE2, 24 h, HeLa-ACE2 cells, SARS-CoV-2 infection, 24 h; bound printed in cell; read-out: EC50, uM (Hela)
row,SMILES,EC50 [µM]
1,"O=C(NC1CS(=O)(=O)C1)C(=O)N[C@@H](CC1CC1)C(=O)N[C@@H](C[C@@H]1CCNC1=O)C(=O)COC(F)(F)F [Compound 234, N1-((S)-3-cyclopropyl-1-oxo-1-(((S)-3-oxo-1-((S)-2-oxopyrrolidin-3-yl)-4-(trifluoromethoxy)butan-2-yl)amino)propan-2-yl)-N2-(l,1-dioxidothietan-3-yl)oxalamide]",> 1

# Same assay, conditions: Severe acute respiratory syndrome coronavirus 2, HeLa-ACE2, 24 h, HeLa-ACE2 cells, SARS-CoV-2 infection, 24 h; cells given as a bound; read-out: EC50, uM (Hela)
row,SMILES,EC50 [µM]
1,"CC(C)C[C@H](NC(=O)OC/C=C/c1cccc(Cl)c1)C(=O)N[C@@H](C[C@@H]1CCNC1=O)C(=O)COc1c(F)c(F)cc(F)c1F [Compound 139, (E)-3-(3-chlorophenyl)allyl ((S)-4-methyl-1-oxo-1-(((S)-3-oxo-1-((S)-2-oxopyrrolidin-3-yl)-4-(2,3,5,6-tetrafluorophenoxy)butan-2-yl)amino)pentan-2-yl)carbamate]",> 1

# Same assay, conditions: Severe acute respiratory syndrome coronavirus 2, HeLa-ACE2, 24 h, HeLa-ACE2 cells, SARS-CoV-2 infection, 24 h; class symbols; read-out: EC50, uM (Hela)
row,SMILES,EC50 [µM]
1,"CC[C@@H](C)[C@@H](O)C(=O)N1CC2(CC2)C[C@H]1C(=O)N[C@@H](C[C@@H]1CCNC1=O)C(=O)COC(F)(F)F [Compound 380, (S)-5-((2R,3R)-2-hydroxy-3-methylpentanoyl)-N-((S)-3-oxo-1-((S)-2-oxopyrrolidin-3-yl)-4-(trifluoromethoxy)butan-2-yl)-5-azaspiro[2.4]-heptane-6-carboxamide]",0.05 to 0.2
2,"CC(C)C[C@H](NC(=O)C(=O)NC1CCOCC1)C(=O)N[C@@H](C[C@@H]1CCNC1=O)C(=O)COc1c(F)c(F)cc(F)c1F [Compound 101, N1-((S)-4-methyl-1-oxo-1-(((S)-3-oxo-1-((S)-2-oxopyrrolidin-3-yl)-4-(2,3,5,6-tetrafluorophenoxy)butan-2-yl)amino)pentan-2-yl)-N2-(tetrahydro-2H-pyran-4-yl)oxalamide]",0.05 to 0.2
3,"CC(C)C[C@H](NC(=O)C(=O)NC1CC2(C1)CC(F)(F)C2)C(=O)N[C@@H](C[C@@H]1CCNC1=O)C(=O)COC(F)(F)F [Compound 241, N1-(6,6-difluorospiro-[3.3]heptan-2-yl)-N2-((S)-4-methyl-1-oxo-1-(((S)-3-oxo-1-((S)-2-oxopyrrolidin-3-yl)-4-(trifluoromethoxy)butan-2-yl)amino)pentan-2-yl)oxalamide]",< 0.05
4,"CC(C)C[C@H](NC(=O)C(=O)Nc1ccccn1)C(=O)N[C@@H](C[C@@H]1CCNC1=O)C(=O)COc1c(F)c(F)cc(F)c1F [Compound 45, N1-((S)-4-methyl-1-oxo-1-(((S)-3-oxo-1-((S)-2-oxopyrrolidin-3-yl)-4-(2,3,5,6-tetrafluorophenoxy)butan-2-yl)amino)pentan-2-yl)-N2-(pyridin-2-yl)oxalamide]",0.05 to 0.2
5,"CC(C)C[C@H](NC(=O)C(=O)Nc1c(C2CC2)cccc1C1CC1)C(=O)N[C@@H](C[C@@H]1CCNC1=O)C(=O)COC(F)(F)F [Compound 185, N1-(2,6-dicyclopropylphenyl)-N2-((S)-4-methyl-1-oxo-1-(((S)-3-oxo-1-((S)-2-oxopyrrolidin-3-yl)-4-(trifluoromethoxy)butan-2-yl)amino)pentan-2-yl)oxalamide]",< 0.05
6,"COCC(C)(C)NC(=O)C(=O)N[C@@H](CC(C)C)C(=O)N[C@@H](C[C@@H]1CCNC1=O)C(=O)COC(F)(F)F [Compound 193, N1-(1-methoxy-2-methylpropan-2-yl)-N2-((S)-4-methyl-1-oxo-1-(((S)-3-oxo-1-((S)-2-oxopyrrolidin-3-yl)-4-(trifluoromethoxy)butan-2-yl)amino)pentan-2-yl)oxalamide]",< 0.05
7,"O=C(Nc1ccccc1Cl)C(=O)NC(CC1CCOCC1)C(=O)N[C@@H](C[C@@H]1CCNC1=O)C(=O)COc1c(F)c(F)cc(F)c1F (stereo partly drawn) [Compound 134, N1-(2-chlorophenyl)-N2-(1-oxo-1-(((S)-3-oxo-1-((S)-2-oxopyrrolidin-3-yl)-4-(2,3,5,6-tetrafluorophenoxy)butan-2-yl)amino)-3-(tetrahydro-2H-pyran-4-yl)propan-2-yl)oxalamide]",< 0.05
8,"O=C(N[C@@H](CC1CC1)C(=O)N[C@@H](C[C@@H]1CCNC1=O)C(=O)COC(F)(F)F)c1cc2cc(F)ccc2[nH]1 [Compound 161, N-((S)-3-cyclopropyl-1-oxo-1-(((S)-3-oxo-1-((S)-2-oxopyrrolidin-3-yl)-4-(trifluoromethoxy)butan-2-yl)amino)propan-2-yl)-5-fluoro-1H-indole-2-carboxamide]",< 0.05

# Same assay, conditions: Severe acute respiratory syndrome coronavirus 2, HeLa-ACE2, 24 h, HeLa-ACE2 cells, SARS-CoV-2 infection, 24 h; read-out: EC50, uM (Hela)
row,SMILES,EC50 [µM]
1,"CC(C)C[C@@H](O)C(=O)N1[C@H](C(=O)N[C@@H](C[C@@H]2CCNC2=O)C(=O)COC(F)(F)F)CCC1(C)C [Compound 787, (S)-1-((R)-2-hydroxy-4-methylpentanoyl)-5,5-dimethyl-N-((S)-3-oxo-1-((S)-2-oxopyrrolidin-3-yl)-4-(trifluoromethoxy)butan-2-yl)pyrrolidine-2-carboxamide]",0.05 to 0.2
2,"O=C1NCC[C@H]1C[C@H](NC(=O)[C@@H]1CC2(CC2)CN1C(=O)C(O)(c1ccccc1)C(F)(F)F)C(=O)COC(F)(F)F (stereo partly drawn) [Compound 681, (6S)-N-((S)-3-oxo-1-((S)-2-oxopyrrolidin-3-yl)-4-(trifluoromethoxy)butan-2-yl)-5-(3,3,3-trifluoro-2-hydroxy-2-phenylpropanoyl)-5-azaspiro[2.4]heptane-6-carboxamide]",0.05 to 0.2
3,"COc1cccc2[nH]c(C(=O)N3C[C@@H]4CCC[C@@H]4[C@H]3C(=O)N[C@@H](C[C@@H]3CCNC3=O)C(=O)COC(F)(F)F)cc12 [Compound 608, (1S,3aR,6aS)-2-(4-methoxy-1H-indole-2-carbonyl)-N-((S)-3-oxo-1-((S)-2-oxopyrrolidin-3-yl)-4-(trifluoromethoxy)butan-2-yl)octahydrocyclopenta[c]pyrrole-1-carboxamide]",< 0.05
4,"CC(C)C[C@@H](O)C(=O)N1CC[C@@H](C(C)(C)C)C[C@H]1C(=O)N[C@@H](C[C@@H]1CCNC1=O)C(=O)COC(F)(F)F [Compound 637, (2S,4R)-4-(tert-butyl)-1-((R)-2-hydroxy-4-methylpentanoyl)-N-((S)-3-oxo-1-((S)-2-oxopyrrolidin-3-yl)-4-(trifluoromethoxy)butan-2-yl)piperidine-2-carboxamide]",< 0.05
5,"O=C1NCC[C@H]1C[C@H](NC(=O)[C@@H]1CC2(CC2)CN1C(=O)CNS(=O)(=O)Nc1ccccc1)C(=O)COC(F)(F)F [Compound 669, (S)-N-((S)-3-oxo-1-((S)-2-oxopyrrolidin-3-yl)-4-(trifluoromethoxy)butan-2-yl)-5-((N-phenylsulfamoyl)glycyl)-5-azaspiro[2.4]heptane-6-carboxamide]",0.05 to 0.2
6,"O=C1NCC[C@H]1C[C@H](NC(=O)[C@@H]1[C@H]2CCC[C@H]2CN1C(=O)[C@H](O)c1ccc(F)cc1)C(=O)COC(F)(F)F [Compound 404, (1S,3aR,6aS)-2-((R)-2-(4-fluorophenyl)-2-hydroxyacetyl)-N-((S)-3-oxo-1-((S)-2-oxopyrrolidin-3-yl)-4-(trifluoromethoxy)butan-2-yl)octahydrocyclo-penta[c]pyrrole-1-carboxamide]",< 0.05
7,"O=C(Nc1ccccc1F)C(=O)N1CCCCC[C@H]1C(=O)N[C@@H](C[C@@H]1CCNC1=O)C(=O)COC(F)(F)F [Compound 584, (S)-1-(2-((2-fluorophenyl)amino)-2-oxoacetyl)-N-((S) -3-oxo-1-((S)-2-oxopyrrolidin-3-yl)-4-(trifluoromethoxy)butan-2-yl)azepane-2-carboxamide]",< 0.05
